# Several values for one entry are separate records, joined by “and”; a condition that tells them apart may be missing. Equal entries are not always repeated. Entries after “also recorded” stand apart in the source; their conditions may differ. Where two headings read alike, the source gives them in different places.
# Tests used:
# [1] = system: M2 of influenza A(H1N1) viruses
# [2] = system: NA enzyme activity of influenza A(H1N1) viruses; format: biochemical, influenza A(H1N1) virus
# influenza virus = settings: human, in vivo; cited from earlier work
compound,measurement,setting,value
NC12CC3CC(CC(C3)C1)C2 [amantadine],susceptibility of oseltamivir resistant A(H1N1) viruses to amantadine / M2I,[1],still susceptible
CC(=O)N[C@H]1[C@H]([C@H](O)[C@H](O)CO)OC(C(=O)O)=C[C@@H]1N=C(N)N [zanamivir],susceptibility of oseltamivir resistant A(H1N1) viruses to zanamivir,[2],None of influenza A(H1N1) oseltamivir resistant viruses tested was resistant; also recorded: sensitive; also recorded: still susceptible
same,IC50,[2]; read-out: baseline zanamivir IC50-value (mean±SD),1.05 nM and 0.98 nM
same,IC50,[2]; read-out: mean IC50 ± SD,0.87 ± 0.22 nM
CCOC(=O)C1=C[C@@H](OC(CC)CC)[C@H](NC(C)=O)[C@@H](N)C1 [oseltamivir],oseltamivir-resistance emerged in treated children,influenza virus,18% and 16%
same,"proportion of viruses resistant against oseltamivir, phenotypic assessment",[2],29%

# From article PMC3249654 (The Open Virology Journal, 2011)
